Experimental data published in patent US20240182445A1 (ONO PHARMACEUTICAL CO., LTD., priority 2019, published 2024).
pIC50: −log10 of the molar value.

Molecular target: T1, human TREK-1 (Homo sapiens, UniProt O95069)
T1 construct: expressed in transfected cells
T1 sequence (O95069 1-426): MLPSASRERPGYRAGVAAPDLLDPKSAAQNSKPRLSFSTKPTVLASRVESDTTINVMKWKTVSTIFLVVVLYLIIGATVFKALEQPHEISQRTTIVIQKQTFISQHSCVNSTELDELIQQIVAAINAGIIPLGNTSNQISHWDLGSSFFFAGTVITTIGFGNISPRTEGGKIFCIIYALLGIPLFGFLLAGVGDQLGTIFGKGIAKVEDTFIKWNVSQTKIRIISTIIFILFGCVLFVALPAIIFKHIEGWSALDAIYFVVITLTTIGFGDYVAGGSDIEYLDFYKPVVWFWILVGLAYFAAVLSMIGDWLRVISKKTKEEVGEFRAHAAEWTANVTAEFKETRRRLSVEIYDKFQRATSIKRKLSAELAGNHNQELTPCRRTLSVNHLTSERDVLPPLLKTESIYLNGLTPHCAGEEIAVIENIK
Experiment: TREK-1 Thallium (Tl+) flux assay, Method 1
Format: cell-based
Conditions: TREK-1 Thallium (Tl+) flux assay, Method 1
Outline: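 CHO-K1 cells stably expressing human TREK-1, loaded with Thallos dye, received compound or 0.3% DMSO vehicle for 10 min before thallium stimulus buffer. ΔRatio is fluorescence at 25 s after thallium addition over mean pre-addition fluorescence; % inhibition calculated from it.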

pIC50	SMILES
5.26	Cc1cc(OCc2ccccc2)ccc1NC(=O)c1c(Cl)cnn1CC1CN(C(=O)CC(C)C)CCO1 (stereo not shown) [Compound 429, N-(4-(benzyloxy)-2-methylphenyl)-4-chloro-1-((4-(3-methylbutanoyl)morpholin-2-yl)methyl)-1H-pyrazole-5-carboxamide]
5.64	Cc1cc(OCc2ccccc2)ccc1NC(=O)c1c(Cl)cnn1C1CCN(C(=O)C(C)(C)C)CC1 [Compound 405, N-(4-(benzyloxy)-2-methylphenyl)-4-chloro-1-(1-pivaloylpiperidin-4-yl)-1H-pyrazole-5-carboxamide]
5.36	Cc1cc(OCc2ccccc2)ccc1NC(=O)c1c(Cl)cnn1CC1CN(C(=O)C(C)C)CCO1 (stereo not shown) [Compound 420, N-(4-(benzyloxy)-2-methylphenyl)-4-chloro-1-((4-isobutyrylmorpholin-2-yl)methyl)-1H-pyrazole-5-carboxamide]
5.19	CCOc1ccc(-c2cnc(NC(=O)c3c(Cl)cnn3C3CCN(C(=O)OC(C)(C)C)CC3)c(C)c2)cc1 [Compound 431, tert-butyl 4-(4-chloro-5-((5-(4-ethoxyphenyl)-3-methylpyridin-2-yl)carbamoyl)-1H-pyrazol-1-yl)piperidine-1-carboxylate]

Same assay, conditions: TREK-1 Thallium (Tl+) flux assay; no *^12 (Method 2) mark on these rows

SMILES	pIC50
O=C(Nc1ncc(C#Cc2ccccc2)cc1F)c1c(Cl)cnn1-c1ccc2c(c1)OCO2 [Compound 227, 1-(benzo[d][1,3]dioxol-5-yl)-4-chloro-N-(3-fluoro-5-(phenylethynyl)pyridin-2-yl)-1H-pyrazole-5-carboxamide]	6.46
O=C(Nc1ncc(C#Cc2cccs2)cc1F)c1c(Cl)cnn1CCC1CCN(C(=O)C2CC2)CC1 [Compound 250, 4-chloro-1-(2-(1-(cyclopropanecarbonyl)piperidin-4-yl)ethyl)-N-(3-fluoro-5-(thiophen-2-ylethynyl)pyridin-2-yl)-1H-pyrazole-5-carboxamide]	6.40
Cc1cc(C#Cc2ccccc2)cnc1NC(=O)c1c(Cl)cnn1CC1(C)CCN(C(=O)C2COCCO2)CC1 (stereo not shown) [Compound 251, 1-((1-(1,4-dioxane-2-carbonyl)-4-methylpiperidin-4-yl)methyl)-4-chloro-N-(3-methyl-5-(phenylethynyl)pyridin-2-yl)-1H-pyrazole-5-carboxamide]	6.40
CC(C)(C)OC(=O)N1CC[C@@H](Cn2ncc(Cl)c2C(=O)Nc2ncc(C#Cc3ccccc3)cc2F)[C@H](F)C1 [Compound 240, tert-butyl (3S,4S)-4-((4-chloro-5-((3-fluoro-5-(phenylethynyl)pyridin-2-yl)carbamoyl)-1H-pyrazol-1-yl)methyl)-3-fluoropiperidine-1-carboxylate]	6.43
Cc1cc(C#Cc2ccccc2)cnc1NC(=O)c1c(Cl)cnn1C1CCN(C(=O)OC(C)(C)C)CC1 [Compound 328]	6.19
Cc1cc(C#Cc2ccccc2)cnc1NC(=O)c1c(Cl)cnn1[C@H]1C[C@@H]2CN(C(=O)C3CC3)C[C@@H]2C1 [Compound 282, 4-chloro-1-[(3aR,5s,6aS)-2-(cyclopropanecarbonyl)octahydro-cyclopenta[c]pyrrol-5-yl]-N-[3-methyl-5-(phenylethynyl)pyridin-2-yl]-1H-pyrazole-5-carboxamide]	6.31
CC(=O)N1CCC2(CC(n3ncc(Cl)c3C(=O)Nc3ncc(C#Cc4ccc(F)cc4)cc3C)C2)C1 (stereo not shown) [Compound 312, 1-(6-acetyl-6-azaspiro[3.4]octan-2-yl)-4-chloro-N-{5-[(4-fluorophenyl)ethynyl]-3-methylpyridin-2-yl}-1H-pyrazole-5-carboxamide]	6.23
CC(C)C(=O)N1CCC[C@H](Cn2ncc(Cl)c2C(=O)Nc2ncc(C#Cc3ccccc3)cc2F)C1 [Compound 288, (S)-4-chloro-N-(3-fluoro-5-(phenylethynyl)pyridin-2-yl)-1-((1-isobutyrylpiperidin-3-yl)methyl)-1H-pyrazole-5-carboxamide]	6.30
CC(C)(C)OC(=O)N[C@H]1C[C@@H](n2ncc(Cl)c2C(=O)Nc2ncc(C#Cc3ccccc3)cc2F)C1 [Compound 325, tert-butyl (cis-3-(4-chloro-5-((3-fluoro-5-(phenylethynyl)pyridin-2-yl)carbamoyl)-1H-pyrazol-1-yl)cyclobutyl)carbamate]	6.19
CC(=O)N1CCC[C@H](Cn2ncc(Cl)c2C(=O)Nc2ncc(C#Cc3ccccc3)cc2C)C1 [Compound 296, (S)-1-((1-acetylpiperidin-3-yl)methyl)-4-chloro-N-(3-methyl-5-(phenylethynyl)pyridin-2-yl)-1H-pyrazole-5-carboxamide]	6.28
Cc1cc(C#Cc2ccc(F)cc2)cnc1NC(=O)c1c(Cl)cnn1C[C@@H]1CCN(C(=O)C(C)C)C[C@H]1F [Compound 293, 4-chloro-1-(((3S,4S)-3-fluoro-1-isobutyrylpiperidin-4-yl)methyl)-N-(5-((4-fluorophenyl)ethynyl)-3-methylpyridin-2-yl)-1H-pyrazole-5-carboxamide]	6.28
CC1(Cn2ncc(Cl)c2C(=O)Nc2ncc(C#Cc3ccccc3)cc2F)CCCO1 (stereo not shown) [Compound 279, 4-chloro-N-(3-fluoro-5-(phenylethynyl)pyridin-2-yl)-1-((2-methyltetrahydrofuran-2-yl)methyl)-1H-pyrazole-5-carboxamide]	6.31
CC(=O)N1CCC(CCn2ncc(Cl)c2C(=O)Nc2ncc(C#Cc3ccccc3F)cc2C)CC1 [Compound 196, 1-(2-(1-acetylpiperidin-4-yl)ethyl)-4-chloro-N-(5-((2-fluorophenyl)ethynyl)-3-methylpyridin-2-yl)-1H-pyrazole-5-carboxamide]	6.52
Cc1cc(C#Cc2ccccc2)cnc1NC(=O)c1c(Cl)cnn1CC1(C)CCN(C(=O)OC(C)(C)C)CC1 [Compound 301, tert-butyl 4-((4-chloro-5-((3-methyl-5-(phenylethynyl)pyridin-2-yl)carbamoyl)-1H-pyrazol-1-yl)methyl)-4-methylpiperidine-1-carboxylate]	6.27

Now from value to compound:

pIC50	SMILES
6.13	CC(=O)N1CC[C@@H](Cn2ncc(Cl)c2C(=O)Nc2ncc(C#Cc3ccc(F)cc3)cc2C)[C@H](F)C1 [Compound 341, 1-(((3S,4S)-1-acetyl-3-fluoropiperidin-4-yl)methyl)-4-chloro-N-(5-((4-fluorophenyl)ethynyl)-3-methylpyridin-2-yl)-1H-pyrazole-5-carboxamide]
6.07	CC(=O)N1CCC(Cn2ncc(Cl)c2C(=O)Nc2ncc(C#Cc3ccccc3F)cc2C)CC1 [Compound 356, 1-((1-acetylpiperidin-4-yl)methyl)-4-chloro-N-(5-((2-fluorophenyl)ethynyl)-3-methylpyridin-2-yl)-1H-pyrazole-5-carboxamide]
6.06	Cc1cc(C#Cc2ccccc2)cnc1NC(=O)c1c(Cl)cnn1C1CCCC(NC(=O)OC(C)(C)C)C1 (stereo not shown) [Compound 358, tert-butyl (3-(4-chloro-5-((3-methyl-5-(phenylethynyl)pyridin-2-yl)carbamoyl)-1H-pyrazol-1-yl)cyclohexyl)carbamate]
6.05	CC(C)(C)OC(=O)N[C@H]1CC[C@H](n2ncc(Cl)c2C(=O)Nc2ncc(C#Cc3ccccc3)cc2F)CC1 [Compound 360, tert-butyl (trans-4-(4-chloro-5-((3-fluoro-5-(phenylethynyl)pyridin-2-yl)carbamoyl)-1H-pyrazol-1-yl)cyclohexyl)carbamate]
6.15	Cc1cc(C#Cc2ccccc2)cnc1NC(=O)c1c(Cl)cnn1C1CCN(C(=O)OC(C)(C)C)C[C@H]1F (stereo in doubt) [Compound 336, tert-butyl (3R,4R)-4-(4-chloro-5-((3-methyl-5-(phenylethynyl)pyridin-2-yl)carbamoyl)-1H-pyrazol-1-yl)-3-fluoropiperidine-1-carboxylate]

Same assay, conditions: TREK-1 Thallium (Tl+) flux assay; values without footnote *12 are Method 1

pIC50	SMILES
6.54	CC(C)C(=O)N1CCC(F)(Cn2ncc(Cl)c2C(=O)Nc2ncc(C#Cc3ccccc3)cc2F)CC1 [Compound 190, 4-chloro-1-((4-fluoro-1-isobutyrylpiperidin-4-yl)methyl)-N-(3-fluoro-5-(phenylethynyl)pyridin-2-yl)-1H-pyrazole-5-carboxamide]
6.57	CC(=O)N1CC[C@@H](Cn2ncc(Cl)c2C(=O)Nc2ncc(C#Cc3ccccc3)cc2F)[C@H](F)C1 [Compound 178, 1-(((3S,4S)-1-acetyl-3-fluoropiperidin-4-yl)methyl)-4-chloro-N-(3-fluoro-5-(phenylethynyl)pyridin-2-yl)-1H-pyrazole-5-carboxamide]
6.89	CC(=O)N[C@H]1CC[C@H](n2ncc(Cl)c2C(=O)Nc2ncc(C#Cc3ccccc3)cc2C)CC1 [Compound 47, 1-(trans-4-acetamidocyclohexyl)-4-chloro-N-(3-methyl-5-(phenylethynyl)pyridin-2-yl)-1H-pyrazole-5-carboxamide]
6.92	Cc1cc(C#Cc2ccc(F)cc2)cnc1NC(=O)c1c(Cl)cnn1[C@H]1CC[C@@H](NC(=O)C2COCCO2)CC1 (stereo partly drawn) [Compound 38, 1-(cis-4-(1,4-dioxane-2-carboxamido)cyclohexyl)-4-chloro-N-(5-((4-fluorophenyl)ethynyl)-3-methylpyridin-2-yl)-1H-pyrazole-5-carboxamide]
6.80	CC(C)(C)OC(=O)N1CCC(C#N)(Cn2ncc(Cl)c2C(=O)Nc2ncc(C#Cc3ccccc3)cc2F)CC1 [Compound 83, tert-butyl 4-((4-chloro-5-((3-fluoro-5-(phenylethynyl)pyridin-2-yl)carbamoyl)-1H-pyrazol-1-yl)methyl)-4-cyanopiperidine-1-carboxylate]
